Patent publication US11629171B2, “Beta-hairpin peptidomimetics” (POLYPHOR AG, priority 2017, dated 2023)
Values after ≈ are worked out from the molar mass of the structure shown. Where a SMILES comes first, the peptide text is derived from it. Bridges are numbered along the chain shown (N, C = ends). Roman numbers before positions name the chains, in order. [ ]: non-standard residue; d: D form. Pen = CC(C)(S)[C@H](N)C(=O)O; Hiv = CC(C)[C@H](O)C(=O)O; dDab = NCC[C@@H](N)C(=O)O; Dab = NCC[C@H](N)C(=O)O; Abu = CC[C@H](N)C(=O)O; Dap = NC[C@H](N)C(=O)O

Experiments:
[1] = system: Acinetobacter baumannii 872842; assay type: cell-based; settings: 872842
Summary of the method: (§1)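 Cation-adjusted MH-II broth, 0.002% polysorbate 80, inoculum near 10^6 CFU/mL. MIC read visually after 18-20 h, 35° C; units μg/mL.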

[2] = system: Acinetobacter baumannii DSM 30008; assay type: cell-based; settings: DSM 30008
Summary of the method: as §1

[3] = system: Enterobacter cloacae 848840; assay type: cell-based; settings: 848840
Summary of the method: as §1

Escherichia coli 926415 = assay type: cell-based; settings: 926415
Summary of the method: as §1

[4] = system: Escherichia coli ATCC 25922; assay type: cell-based; settings: ATCC 25922
Summary of the method: as §1

[5] = system: Klebsiella pneumoniae 968733; assay type: cell-based; settings: 968733
Summary of the method: as §1

[6] = system: Klebsiella pneumoniae SSI #3010; assay type: cell-based; settings: SSI #3010
Summary of the method: as §1

[7] = system: Pseudomonas aeruginosa ATCC 27853; assay type: cell-based; settings: ATCC 27853
Summary of the method: as §1

[8] = system: human red blood cells (hRBC); assay: Hemolysis; assay type: cell-based; settings: red cells of human, 1 h, 200
Summary of the method: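 Percent lysis of human red cells was derived from OD540 of the supernatant, referenced to 2% Triton X-100, after a 1 h, 37° C incubation of 20% (v/v) cells with 200 μg/mL peptide.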

male ICR mice = assay: Tolerability in a mouse model (Maximum Tolerated Dose assay); assay type: in vivo; settings: groups of 3
Method: The tolerability of the peptides was tested in a mouse model at Pharmacology Discovery Services Taiwan Ltd, Taipei, Taiwan. The peptides were administered subcutaneously (s.c.) at 30 mg/kg or 40 mg/kg, respectively; twice at a 12-hr interval, for assessment of possible adverse effects in the Maximum Tolerated Dose (MTD) assay in male ICR (Institute of Cancer Research) mice. The peptides were dissolved in 0.9% NaCl at the concentrations either of 6 or 8 mg/mL, respectively, based on the free base molecular weight. The pH values of dosing solutions were adjusted to 6.5-7.6 before s.c. administration. A dosing volume at 5 mL/kg and a concentration of 6 or 8 mg/mL, respectively, was applied. The fresh prepared stock solution were stored at 4° C. during the study. Male ICR mice weighing 23±3 g were provided by BioLasco Taiwan (under Charles River Laboratories Licensee). Animals were acclimated for 3 days prior to use and were confirmed to be in good health. The peptides were administered s.c. at 30 mg/kg or 40 mg/kg, respectively, twice at a 12-hr interval, to groups of 3 ICR male mice and observed for the presence of acute toxic symptoms (mortality, convulsions, tremors, muscle relaxation, sedation, etc.) and autonomic effects (diarrhea, salivation, lacrimation, vasodilation, piloerection, etc.) during the first 30 min. The peptides were administered again at a 12-hr (two total doses) interval, following the first dose. The animals were then observed again for the presence of acute toxic symptoms and autonomic effects during the first 30 min.

[9] = 2 × 40 mg/kg s.c. at a 12-hr interval

CC(C)C[C@@H]1NC(=O)[C@@H](CC(C)C)NC(=O)[C@H](CCN)NC(=O)[C@@H](NC(=O)[C@H](CN)NC(=O)[C@@H](NC(=O)[C@H](CCN)NC(=O)CC[C@@H]2NC(=O)[C@H](CCN)NC(=O)[C@H](Cc3ccc(O)cc3)NC(=O)[C@@H](NC(=O)[C@@H](O)C(C)C)C(C)(C)SSC[C@@H](C(=O)N[C@@H](CO)C(N)=O)NC(=O)[C@H](C(C)C)NC(=O)[C@H](CO)NC(=O)[C@H](Cc3c[nH]c4ccccc34)NC(=O)[C@H](CO)NC(=O)[C@@H](CCN)NC2=O)[C@@H](C)O)CCNC(=O)[C@H]([C@@H](C)O)NC(=O)[C@H](CCN)NC(=O)[C@H](CCN)NC1=O [Ex. 340] (I: H-[Hiv][Pen]Y[Dab]E[dDab]SWSVCS-NH2 / II: [Dab]T[Dap][Dab][Dab][dL]L[Dab][Dab]T; disulfide I:2-I:11; amide I:5-II:N; lactam II:4-II:C)
MIC [1]: 0.0625 µg/mL (≈ 0.0262 µM)
Acinetobacter baumannii DSM 30008 MIC [2]: 0.0625 µg/mL
MIC [3]: 0.125 µg/mL (≈ 0.0524 µM)
MIC (Escherichia coli 926415): 0.125 µg/mL (≈ 0.0524 µM)
Escherichia coli ATCC 25922 MIC [4]: 0.03125 µg/mL
MIC [5]: 0.25 µg/mL (≈ 0.105 µM)
Klebsiella pneumoniae SSI #3010 MIC [6]: 0.0625 µg/mL
Pseudomonas aeruginosa ATCC 27853 MIC [7]: 0.25 µg/mL
Hemolysis at 200 μg/mL [8]: <1%
Mortality and dose (male ICR mice; [9]): 0/3 died at 2 × 40 mg/kg

CC(=O)N[C@H](C(=O)N[C@H]1CSSC[C@@H](C(=O)N[C@@H](CO)C(N)=O)NC(=O)[C@H](C(C)C)NC(=O)[C@H](CO)NC(=O)[C@H](Cc2c[nH]c3ccccc23)NC(=O)[C@H](CCN)NC(=O)CNC(=O)[C@H](CCC(=O)N[C@@H](CCN)C(=O)N[C@H](C(=O)N[C@@H](CN)C(=O)N[C@H]2CCNC(=O)[C@H]([C@@H](C)O)NC(=O)[C@H](CCN)NC(=O)[C@H](CCN)NC(=O)[C@H](CC(C)C)NC(=O)[C@@H](CC(C)C)NC(=O)[C@H](CCN)NC2=O)[C@@H](C)O)NC(=O)[C@H](CCN)NC(=O)[C@H](Cc2ccc(O)cc2)NC1=O)C(C)C [Ex. 345] (I: Ac-VCY[Dab]EG[Dab]WSVCS-NH2 / II: [Dab]T[Dap][Dab][Dab][dL]L[Dab][Dab]T; disulfide I:2-I:11; amide I:5-II:N; lactam II:4-II:C)
MIC [1]: 0.125 µg/mL (≈ 0.0528 µM)
Acinetobacter baumannii DSM 30008 MIC [2]: 0.0625 µg/mL
MIC [3]: 0.125 µg/mL (≈ 0.0528 µM)
MIC (Escherichia coli 926415): 0.125 µg/mL (≈ 0.0528 µM)
Escherichia coli ATCC 25922 MIC [4]: 0.0625 µg/mL
MIC [5]: 0.25 µg/mL (≈ 0.106 µM)
Klebsiella pneumoniae SSI #3010 MIC [6]: 0.0625 µg/mL
Pseudomonas aeruginosa ATCC 27853 MIC [7]: 0.125 µg/mL
Hemolysis at 200 μg/mL [8]: <1%
Mortality and dose (male ICR mice; [9]): 0/3 died at 2 × 40 mg/kg

CC(C)C[C@@H]1NC(=O)[C@@H](CC(C)C)NC(=O)[C@H](CCN)NC(=O)[C@@H](NC(=O)[C@H](CN)NC(=O)[C@@H](NC(=O)[C@H](CCN)NC(=O)CC[C@@H]2NC(=O)[C@H](CCN)NC(=O)[C@H](Cc3ccc(O)cc3)NC(=O)[C@@H](NC(=O)[C@@H](O)C(C)C)CSSC[C@@H](C(=O)N[C@H](CO)C(N)=O)NC(=O)[C@H](C(C)C)NC(=O)[C@H](CO)NC(=O)[C@H](Cc3c[nH]c4ccccc34)NC(=O)[C@H](CO)NC(=O)[C@@H](CCN)NC2=O)[C@@H](C)O)CCNC(=O)[C@H]([C@@H](C)O)NC(=O)[C@H](CCN)NC(=O)[C@H](CCN)NC1=O [Ex. 344] (I: H-[Hiv]CY[Dab]E[dDab]SWSVC[dS]-NH2 / II: [Dab]T[Dap][Dab][Dab][dL]L[Dab][Dab]T; disulfide I:2-I:11; amide I:5-II:N; lactam II:4-II:C)
MIC [1]: 0.25 µg/mL (≈ 0.106 µM)
Acinetobacter baumannii DSM 30008 MIC [2]: 0.125 µg/mL
MIC [3]: 1 µg/mL (≈ 0.424 µM)
MIC (Escherichia coli 926415): 0.125 µg/mL (≈ 0.053 µM)
Escherichia coli ATCC 25922 MIC [4]: 0.0625 µg/mL
MIC [5]: 0.25 µg/mL (≈ 0.106 µM)
Klebsiella pneumoniae SSI #3010 MIC [6]: 0.0625 µg/mL
Pseudomonas aeruginosa ATCC 27853 MIC [7]: 0.125 µg/mL
Hemolysis at 200 μg/mL [8]: <1%
Mortality and dose (male ICR mice; [9]): 0/3 died at 2 × 40 mg/kg

CC(=O)N[C@H](C(=O)N[C@H]1CSSC[C@@H](C(=O)N[C@@H](CO)C(N)=O)NC(=O)[C@H](C(C)C)NC(=O)[C@H](CO)NC(=O)[C@H](Cc2c[nH]c3ccccc23)NC(=O)CNC(=O)[C@@H](CCN)NC(=O)[C@H](CCC(=O)N[C@@H](CCN)C(=O)N[C@H](C(=O)N[C@@H](CN)C(=O)N[C@H]2CCNC(=O)[C@H]([C@@H](C)O)NC(=O)[C@H](CCN)NC(=O)[C@H](CCN)NC(=O)[C@H](CC(C)C)NC(=O)[C@@H](CC(C)C)NC(=O)[C@H](CCN)NC2=O)[C@@H](C)O)NC(=O)[C@H](CCN)NC(=O)[C@H](Cc2ccc(O)cc2)NC1=O)C(C)C [Ex. 350] (I: Ac-VCY[Dab]E[dDab]GWSVCS-NH2 / II: [Dab]T[Dap][Dab][Dab][dL]L[Dab][Dab]T; disulfide I:2-I:11; amide I:5-II:N; lactam II:4-II:C)
MIC [1]: 0.0625 µg/mL (≈ 0.0264 µM)
Acinetobacter baumannii DSM 30008 MIC [2]: 0.03125 µg/mL
MIC [3]: 0.125 µg/mL (≈ 0.0528 µM)
MIC (Escherichia coli 926415): 0.125 µg/mL (≈ 0.0528 µM)
Escherichia coli ATCC 25922 MIC [4]: 0.03125 µg/mL
MIC [5]: 0.125 µg/mL (≈ 0.0528 µM)
Klebsiella pneumoniae SSI #3010 MIC [6]: 0.125 µg/mL
Pseudomonas aeruginosa ATCC 27853 MIC [7]: 0.125 µg/mL
Hemolysis at 200 μg/mL [8]: <1%
Mortality and dose (male ICR mice; [9]): 0/3 died at 2 × 40 mg/kg

CC(=O)N[C@H](C(=O)N[C@H]1CSSC[C@@H](C(=O)N[C@@H](CO)C(N)=O)NC(=O)[C@H](C(C)C)NC(=O)[C@H](CO)NC(=O)[C@H](Cc2c[nH]c3ccccc23)NC(=O)[C@H](CO)NC(=O)[C@@H](CCN)NC(=O)[C@H](CCC(=O)N[C@H](CCN)C(=O)N[C@H](C(=O)N[C@@H](CN)C(=O)N[C@H]2CCNC(=O)[C@H]([C@@H](C)O)NC(=O)[C@H](CCN)NC(=O)[C@H](CCN)NC(=O)[C@H](CC(C)C)NC(=O)[C@@H](CC(C)C)NC(=O)[C@H](CCN)NC2=O)[C@@H](C)O)NC(=O)[C@H](CCN)NC(=O)[C@H](Cc2ccc(O)cc2)NC1=O)C(C)C [Ex. 310] (I: Ac-VCY[Dab]E[dDab]SWSVCS-NH2 / II: [dDab]T[Dap][Dab][Dab][dL]L[Dab][Dab]T; disulfide I:2-I:11; amide I:5-II:N; lactam II:4-II:C)
MIC [1]: 0.0625 µg/mL (≈ 0.0261 µM)
Acinetobacter baumannii DSM 30008 MIC [2]: 0.0625 µg/mL
MIC [3]: 0.0625 µg/mL (≈ 0.0261 µM)
MIC (Escherichia coli 926415): 0.0625 µg/mL (≈ 0.0261 µM)
Escherichia coli ATCC 25922 MIC [4]: 0.03125 µg/mL
MIC [5]: 0.0625 µg/mL (≈ 0.0261 µM)
Klebsiella pneumoniae SSI #3010 MIC [6]: 0.0625 µg/mL
Pseudomonas aeruginosa ATCC 27853 MIC [7]: 0.125 µg/mL
Hemolysis at 200 μg/mL [8]: <1%
Mortality and dose (male ICR mice; [9]): 0/3 died at 2 × 40 mg/kg

CC[C@@H]1NC(=O)[C@@H](CC(C)C)NC(=O)[C@H](CCN)NC(=O)[C@@H](NC(=O)[C@H](CN)NC(=O)[C@@H](NC(=O)[C@H](CCN)NC(=O)CC[C@@H]2NC(=O)[C@H](CCN)NC(=O)[C@H](Cc3ccc(O)cc3)NC(=O)[C@@H](NC(=O)[C@@H](NC(C)=O)C(C)C)CSSC[C@@H](C(=O)N[C@@H](CO)C(N)=O)NC(=O)[C@H](C(C)C)NC(=O)[C@H](CO)NC(=O)[C@H](Cc3c[nH]c4ccccc34)NC(=O)[C@H](CO)NC(=O)[C@@H](CCN)NC2=O)[C@@H](C)O)CCNC(=O)[C@H]([C@@H](C)O)NC(=O)[C@H](CCN)NC(=O)[C@H](CCN)NC1=O [Ex. 137] (I: Ac-VCY[Dab]E[dDab]SWSVCS-NH2 / II: [Dab]T[Dap][Dab][Dab][dL][Abu][Dab][Dab]T; disulfide I:2-I:11; amide I:5-II:N; lactam II:4-II:C)
MIC [1]: 0.125 µg/mL (≈ 0.0527 µM)
MIC [2]: 0.0625 µg/mL (≈ 0.0264 µM)
MIC [3]: 0.0625 µg/mL (≈ 0.0264 µM)
MIC (Escherichia coli 926415): 0.125 µg/mL (≈ 0.0527 µM)
MIC [4]: 0.03125 µg/mL (≈ 0.0132 µM)
MIC [5]: 0.125 µg/mL (≈ 0.0527 µM)
MIC [6]: 0.0625 µg/mL (≈ 0.0264 µM)
MIC [7]: 0.125 µg/mL (≈ 0.0527 µM)
Hemolysis at 200 μg/mL [8]: 1%
Mortality and dose (male ICR mice; 2 × 30 mg/kg s.c. at a 12-hr interval): 0/3 died at 2 × 30 mg/kg
